US20200190062A1, “HETEROCYCLIC COMPOUND AND PHARMACEUTICAL COMPOSITION COMPRISING SAME” (BEYONDBIO INC., priority 2015, published 2020)
Read-outs that look alike come from different tables or passages of the source.

Key:
CDK1/cyclinB = biological target: T1, CDK1/cyclinB (Homo sapiens, UniProt P06493); assay: Inhibition of CDK enzyme activity (ADP-Glo kinase assay); assay type: biochemical; conditions: 10 uM ATP, histone H1 substrate
T1 construct: purchased Merck Millipore
Experimental: (§1) Test compounds were prepared by dissolving the compounds obtained in the above Examples in dimethylsulfoxide (DMSO) at a concentration of 10 mM. The test compounds were diluted to 200 nM, 50 nM, […], 3.13 nM, 0.78 nM, and 0.2 nM and used in an enzyme reaction.
(§2) CDK enzyme reaction was conducted in a buffer containing 50 mM Tris-HCl (pH 7.5), 10 mM MgCl2, 1 mM EGTA, 1 mM EDTA, and 2 mM DTT. CDK1/cyclinB, CDK2/cylcinE, CDK5/p25, and CDK6/cyclinD3 enzymes commercially available from Merck Millipore were used for CDK1, CDK2, CDK5, and CDK6 enzymes, respectively, and CDK4/cyclinD1 enzyme commercially available from Signalchem (US) was used for CDK4. For CDK1, a reaction proceeded by adding 10 nM CDK1/cyclinB and 0.125 mg/ml histone H1 (Merck Millipore) substrate to the buffer and then adding 10 uM ATP thereto. For CDK2, a reaction was proceeded by adding 10 nM CDK2/cyclinE and 0.125 mg/ml histone H1 substrate to the buffer and then adding 10 uM ATP thereto. For CDK5, a reaction was proceeded by adding 10 nM CDK5/p25 and 0.125 mg/ml histone H1 substrate to the buffer and then adding 10 uM ATP thereto. For CDK4, a reaction was proceeded by adding 20 nM CDK4/cyclinD1 and 0.125 mg/ml Rb protein (Merck Millipore) to the buffer and then adding 10 uM ATP thereto. For CDK6, a reaction was proceeded by adding 50 nM CDK6/cyclinD3 and 0.125 mg/ml histone H1 substrate to the buffer and then adding 10 uM ATP thereto. Each enzyme reaction was incubated at 30° C. for 60 min. Then, the amount of ADP produced was measured using Victor X4 instrument (Perkin Elmer) after generating luminescence using ADP-Glo kinase assay kit (Promega, US). An inhibition effect on each enzyme was represented as a percentage of the luminescence value in the presence of the test compounds relative to the luminescence value without the test compounds. IC50 (nM) is the concentration of the compound to inhibit 50% of the enzyme activity.

CDK4/cyclinD1 = biological target: T2, CDK4/cyclinD1 (Homo sapiens, UniProt P11802); assay: as above; assay type: biochemical; conditions: 10 uM ATP, Rb protein substrate; read-out: IC50 CDK4/cyclinD
T2 construct: purchased Signalchem (US)
Experimental: as §1, §2

CDK2/cyclinE = biological target: T3, CDK2/cyclinE (Homo sapiens, UniProt P24941); assay: as above; assay type: biochemical; conditions: 10 uM ATP, histone H1 substrate
T3 construct: purchased Merck Millipore
Experimental: as §1, §2

CDK5/p25 = biological target: T4, CDK5/p25 (Homo sapiens, UniProt Q00535); assay: as above; assay type: biochemical; conditions: 10 uM ATP, histone H1 substrate
T4 construct: purchased Merck Millipore
Experimental: as §1, §2

CDK6/cyclinD3 = biological target: T5, CDK6/cyclinD3 (Homo sapiens, UniProt Q00534); assay: as above; assay type: biochemical; conditions: 10 uM ATP, histone H1 substrate; read-out: IC50 CDK6/cyclinD
T5 construct: purchased Merck Millipore
Experimental: as §1, §2

SH-SY5Y = assay: Inhibition of cancer cell proliferation (MTT); assay type: cell-based, human
How it was run: (§3)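 Cells were seeded at 3000/well (A549, SK-N-SH and SH-SY5Y in DMEM, NCI-H23 in […], all with 10% FBS), allowed to attach for 16 h, then exposed to compounds at 0.004–10 uM for 72 h at 37 °C. MTT formazan was read at 535 nm, and GI50 was calculated relative to 0.08% DMSO controls.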

HCT116 = assay: Inhibition of cancer cell proliferation (MTT); assay type: cell-based, human
SK-N-SH = assay: Inhibition of cancer cell proliferation (MTT); assay type: cell-based, human
How it was run: as §3

U-87MG = assay: Inhibition of cancer cell proliferation (MTT); assay type: cell-based, human
How it was run: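 Plate 3000 cells/well and let them adhere for 16 h. Add compound (0.004, 0.013, 0.04, 0.12, 0.37, 1.1, 3.3, 10 uM; 0.08% DMSO) and culture for 72 h. Add MTT for 2 h, dissolve formazan in DMSO, read at 535 nm, and fit GI50.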

Aβ (amyloid β protein) = assay: Inhibition of Aβ generation in B103/APP cells (Aβ42 ELISA); assay type: cell-based; conditions: Rattus norvegicus, 72 hrs
Experimental: The APP gene was inserted into B103 cells so that APP could be stably expressed and the resulting B103/APP cells were used to confirm inhibition of APP phosphorylation and Aβ generation.
Further, to confirm whether Aβ generation is reduced due to APP phosphorylation inhibition, 5×10^5 B103/APP cells were cultured in a 6-well plate for 16 hrs. Afterwards, the compounds obtained in the above Examples were added at 100 nM, 75 nM, 50 nM, 25 nM, 12.5 nM to a medium containing 500 ug/ml of G418 and 0.5% FBS and incubated for 72 hrs. After 72 hrs, the amount of Aβ was quantified using the medium by Human Aβ42 ELISA kit (Invitrogen).

[1] = Blood brain barrier permeation; assay type: in vivo, ICR mice; conditions: mouse, oral once 10 mg/kg, 10 mg/kg; for concentration at 1 h / Kp at 1 h / Kp at 4 h / concentration at 4 h: male, ICR, po; for Kp at 1 h / Kp at 4 h: brain/plasma, read-out: B/P ratio
Experimental: Using 9-week-old male ICR mice, the compounds obtained in the above Examples were orally administered once at a dose of 10 mg/kg or 30 mg/kg, and after 1 hr and 4 hrs, the concentrations of the compounds in the blood and brain of the mice were determined. 3 ICR mice were assigned in each group. Plasma was separated from the blood obtained after sacrificing the mice at each time, the brain of the mice was extracted, and the […] was washed with PBS, followed by pulverizing the brain tissue. The blood was placed in a test tube containing heparin to prevent coagulation and then was centrifuged at 12,000 rpm at 4° C. for 3 min to give a supernatant from which plasma was collected. Brain tissue was weighed, and the brain was pulverized using Dounce's homogenizer after adding 3 times as much volume of PBS as the brain weight. Each of the obtained analytical samples was quantitatively analyzed using a tandem liquid chromatography-mass spectrometer (Tandem LC/MS/MS, API3000 & Agilent 1100 series). Brain permeability of a compound is expressed as a value obtained by dividing the concentration of the compound in the brain by the concentration of the compound in the plasma (B/P ratio), and when the B/P ratio is greater than 1, it means that the concentration in the brain is higher than the one in the blood.

NCI-H23 = assay: Inhibition of cancer cell proliferation (MTT); assay type: cell-based, human; conditions: Homo sapiens, NCI-H23, 72 h
How it was run: as §3

A549 = assay: Inhibition of cancer cell proliferation (MTT); assay type: cell-based, human; conditions: Homo sapiens, A549, 72 h
How it was run: as §3

T98G = assay: Inhibition of cancer cell proliferation (MTT); assay type: cell-based, human
How it was run: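 Growth inhibition over 72 h was measured in attached cultures (3000 per well) with 0.08% DMSO as the control. Viable cells were detected with a 2 h MTT step, and the concentration giving 50% inhibition was taken as GI50.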

[2] = test system: Human colon carcinoma HCT116 cell line; assay: Tumor growth inhibition in an animal model (HCT116 xenograft); assay type: in vivo, Balb/c nude mouse; conditions: 100 mpk, oral daily for 12 days
Experimental: Tumor size was measured twice a week using Caliper. […] A vehicle control was 20% propylene glycol (PG) and a positive control was Xeloda at 100 mg/kg.

[3] = brain, 1 hr, read-out: Concentration in the brain
[4] = plasma, 1 hr, read-out: Concentration in the plasma

T1 sequence (P06493 whole entry): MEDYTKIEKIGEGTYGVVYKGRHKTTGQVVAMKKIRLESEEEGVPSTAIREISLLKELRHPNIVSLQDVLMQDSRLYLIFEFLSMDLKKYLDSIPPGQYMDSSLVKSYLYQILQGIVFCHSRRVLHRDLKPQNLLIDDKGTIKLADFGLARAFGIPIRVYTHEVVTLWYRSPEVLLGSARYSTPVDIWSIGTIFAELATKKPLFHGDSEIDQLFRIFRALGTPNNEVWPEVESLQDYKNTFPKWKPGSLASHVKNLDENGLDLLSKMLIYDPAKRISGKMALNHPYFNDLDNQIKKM
T1 sequence (P14635 whole entry partner): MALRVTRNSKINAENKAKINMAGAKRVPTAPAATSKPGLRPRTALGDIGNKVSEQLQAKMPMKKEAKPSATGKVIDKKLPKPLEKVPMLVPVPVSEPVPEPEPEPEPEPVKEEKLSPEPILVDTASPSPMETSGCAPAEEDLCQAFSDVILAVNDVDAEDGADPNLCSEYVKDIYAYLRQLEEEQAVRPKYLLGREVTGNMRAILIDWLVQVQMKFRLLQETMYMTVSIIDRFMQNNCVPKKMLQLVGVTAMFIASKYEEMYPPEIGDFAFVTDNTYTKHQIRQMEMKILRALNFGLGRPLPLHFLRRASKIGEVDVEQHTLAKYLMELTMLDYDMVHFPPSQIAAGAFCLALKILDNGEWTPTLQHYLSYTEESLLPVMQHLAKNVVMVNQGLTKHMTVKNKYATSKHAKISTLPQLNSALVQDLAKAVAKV
T4 sequence (Q00535 whole entry): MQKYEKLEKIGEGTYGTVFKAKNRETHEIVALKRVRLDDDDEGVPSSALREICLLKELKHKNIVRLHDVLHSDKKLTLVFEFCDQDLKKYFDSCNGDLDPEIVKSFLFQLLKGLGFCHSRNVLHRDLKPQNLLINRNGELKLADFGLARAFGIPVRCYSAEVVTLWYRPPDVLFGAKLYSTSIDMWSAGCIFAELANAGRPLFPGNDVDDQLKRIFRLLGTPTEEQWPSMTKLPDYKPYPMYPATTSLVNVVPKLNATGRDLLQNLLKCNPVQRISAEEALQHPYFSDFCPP
T4 sequence (Q15078 99-307 partner limits assumed): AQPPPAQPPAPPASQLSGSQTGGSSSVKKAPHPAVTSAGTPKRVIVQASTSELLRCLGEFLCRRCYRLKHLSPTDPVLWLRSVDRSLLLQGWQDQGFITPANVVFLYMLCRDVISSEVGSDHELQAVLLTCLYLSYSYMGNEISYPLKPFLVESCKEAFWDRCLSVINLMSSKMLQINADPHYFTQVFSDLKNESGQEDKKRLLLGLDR
T5 sequence (Q00534 whole entry): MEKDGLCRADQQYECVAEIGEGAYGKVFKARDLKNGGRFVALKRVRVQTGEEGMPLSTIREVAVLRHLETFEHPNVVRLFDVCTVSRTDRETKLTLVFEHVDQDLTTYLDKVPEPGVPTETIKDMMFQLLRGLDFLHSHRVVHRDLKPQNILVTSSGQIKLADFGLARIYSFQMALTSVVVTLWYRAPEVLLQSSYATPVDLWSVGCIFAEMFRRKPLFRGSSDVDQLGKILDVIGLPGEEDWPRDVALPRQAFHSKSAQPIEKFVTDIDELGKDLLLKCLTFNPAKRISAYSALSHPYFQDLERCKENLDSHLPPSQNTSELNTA
T5 sequence (P30281 whole entry partner): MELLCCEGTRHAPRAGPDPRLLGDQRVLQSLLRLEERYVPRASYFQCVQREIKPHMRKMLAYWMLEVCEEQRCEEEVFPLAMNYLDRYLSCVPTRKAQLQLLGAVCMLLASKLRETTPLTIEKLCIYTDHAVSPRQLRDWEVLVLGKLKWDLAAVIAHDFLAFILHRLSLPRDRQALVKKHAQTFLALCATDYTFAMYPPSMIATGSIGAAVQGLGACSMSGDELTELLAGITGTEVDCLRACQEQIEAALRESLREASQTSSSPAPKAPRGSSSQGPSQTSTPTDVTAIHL
T2 sequence (P11802 whole entry): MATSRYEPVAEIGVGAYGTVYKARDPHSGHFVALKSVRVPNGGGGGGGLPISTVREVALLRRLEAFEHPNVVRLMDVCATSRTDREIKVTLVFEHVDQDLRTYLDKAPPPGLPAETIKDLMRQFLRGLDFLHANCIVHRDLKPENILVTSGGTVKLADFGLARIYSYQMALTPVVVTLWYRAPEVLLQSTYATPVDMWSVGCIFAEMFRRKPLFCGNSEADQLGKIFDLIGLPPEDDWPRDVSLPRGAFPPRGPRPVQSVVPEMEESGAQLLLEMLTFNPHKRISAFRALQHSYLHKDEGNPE
T2 sequence (P24385 whole entry partner): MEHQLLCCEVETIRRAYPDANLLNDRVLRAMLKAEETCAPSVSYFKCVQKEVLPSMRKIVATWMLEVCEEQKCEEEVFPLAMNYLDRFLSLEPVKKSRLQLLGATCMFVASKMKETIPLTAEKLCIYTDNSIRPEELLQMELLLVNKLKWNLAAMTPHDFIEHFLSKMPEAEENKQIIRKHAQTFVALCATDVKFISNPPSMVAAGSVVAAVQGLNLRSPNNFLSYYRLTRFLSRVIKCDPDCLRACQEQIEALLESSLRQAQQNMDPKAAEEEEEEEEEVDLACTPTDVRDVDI

| IC50 (CDK1/cyclinB) [nM] | IC50 (CDK4/cyclinD1) [nM] | IC50 (CDK2/cyclinE) [nM] | IC50 (CDK5/p25) [nM] | IC50 (CDK6/cyclinD3) [nM] | GI50 (SH-SY5Y; Homo sapiens, SH-SY5Y, 72 h) [nM] | GI50 (HCT116; Homo sapiens, HCT-116, 72 h) [nM] | GI50 (SK-N-SH; Homo sapiens, SK-N-SH, 72 h) [nM] | GI50 (U-87MG; Homo sapiens, U-87 MG, 72 h) [nM] | GI50 (T98G; Homo sapiens, T98G, 72 h) [nM] | SMILES | other results |
| --- | --- | --- | --- | --- | --- | --- | --- | --- | --- | --- | --- |
| 11.6 | 287 | 6.4 | 2.3 | 44.8 | 90 | 200 | 200 | 630 | – | Nc1nccc(-c2nc(-c3ccc(O)cc3)ccc2O)n1 [Example 9, 2-(2-aminopyrimidin-4-yl)-6-(4-hydroxyphenyl)pyridin-3-ol] | – |
| 0.6 | – | 1 | 0.3 | – | – | – | – | – | – | Nc1nccc(-c2nc(-c3ccnc(N)c3F)ccc2O)n1 [Example 66] | inhibition at 0.0125 µM (Aβ (amyloid β protein); 12.5 nM): 36.6%; inhibition at 0.025 µM (Aβ (amyloid β protein); 25 nM): 46.6%; inhibition at 0.05 µM (Aβ (amyloid β protein); 50 nM): 75.9%; inhibition at 0.075 µM (Aβ (amyloid β protein); 75 nM): 100%; inhibition at 0.1 µM (Aβ (amyloid β protein); 100 nM): 100%; B/P ratio ([1]; 1 hr): 2.44; Concentration in the brain ([1]; 1 hr): 80.5 ng/g; Concentration in the plasma ([1]; 1 hr): 32.9 ng/mL; B/P ratio ([1]; 4 hrs): 2.93; Concentration in the brain ([1]; 4 hrs): 58.9 ng/g; Concentration in the plasma ([1]; 4 hrs): 20.1 ng/mL; GI50 (HCT116; 72 hrs): 10 nM; GI50 (NCI-H23): 30 nM; GI50 (U-87MG; 72 hrs): 20 nM; GI50 (A549): 30 nM; GI50 (T98G; 72 hrs): 30 nM |
| – | – | – | – | – | – | – | – | – | – | Nc1nccc(-c2nc(-c3ccnc(N)c3F)ccc2O)n1 [Example 67, 2′-amino-6-(2-aminopyrimidin-4-yl)-3′-fluoro-[2,4′-bipyridin]-5-ol acetate] | concentration at 1 h [1, 3]: 55.1 ng/g; Kp at 1 h ([1]; 1 hr): 2.21; Kp at 4 h ([1]; 4 hrs): 3.97; concentration at 1 h [1, 4]: 24.9 ng/mL; Concentration in the brain ([1]; 4 hrs): 15.5 ng/g; Concentration in the plasma ([1]; 4 hrs): 3.9 ng/mL; GI50 (SH-SY5Y; 72 hrs): 10 nM; GI50 (HCT116; 72 hrs): 10 nM; GI50 (SK-N-SH; 72 hrs): 20 nM; GI50 (U-87MG; 72 hrs): 90 nM |
| – | – | – | – | – | 190 | 520 | 390 | 1180 | 4310 | Nc1nccc(-c2nc(-c3ccc(O)c(F)c3F)ccc2O)n1 [Example 20, 2-(2-aminopyrimidin-4-yl)-6-(2,3-difluoro-4-hydroxyphenyl)pyridin-3-ol] | – |
| 19.6 | > 200 | 14.6 | 6.4 | 129 | 120 | 460 | 210 | 440 | 2610 | Nc1nccc(-c2nc(-c3ccc(O)c(F)c3)ccc2O)n1 [Example 19, 2-(2-aminopyrimidin-4-yl)-6-(3-fluoro-4-hydroxyphenyl)pyridin-3-ol] | – |
| 26.8 | > 200 | 10.7 | 6.1 | 181 | 200 | 340 | 780 | 5860 | – | Nc1nccc(-c2nc(-c3cccc(N)c3F)ccc2O)n1 [Example 18, 6-(3-amino-2-fluorophenyl)-2-(2-aminopyrimidin-4-yl)pyridin-3-ol] | – |
| 30.8 | > 200 | 9.4 | 3.3 | 65.3 | 290 | 610 | 840 | 1700 | – | Nc1nccc(-c2nc(-c3ccc(O)cc3F)ccc2O)n1 [Example 17, 2-(2-aminopyrimidin-4-yl)-6-(2-fluoro-4-hydroxyphenyl)pyridin-3-ol] | – |
| 12.6 | > 200 | 6.6 | 5.9 | 50.7 | 240 | 230 | 420 | 790 | 1830 | Nc1nccc(-c2nc(-c3ccncc3)ccc2O)n1 [Example 12, 6-(2-aminopyrimidin-4-yl)-[2,4′-bipyridin]-5-ol] | concentration at 1 h [1, 3]: 71.1 ng/g; concentration at 4 h ([1]; brain, 4 hrs, read-out: Concentration in the brain): 9.1 ng/g; Kp at 1 h ([1]; 1 hr): 4.1; Kp at 4 h ([1]; 4 hrs): 3.54; concentration at 1 h [1, 4]: 17.3 ng/mL; concentration at 4 h ([1]; plasma, 4 hrs, read-out: Concentration in the plasma): 2.6 ng/mL |
| 6.1 | 403 | 4.5 | 1.5 | 73.6 | 110 | 140 | 310 | 890 | – | Nc1nccc(-c2nc(-c3ccnc(N)c3O)ccc2O)n1 [Example 21, 2′-amino-6-(2-aminopyrimidin-4-yl)-[2,4′-bipyridin]-3′,5-diol] | – |
| – | – | – | – | – | – | – | – | – | – | CCCCCOC(=O)Nc1nc(=O)n([C@@H]2O[C@H](C)[C@@H](O)[C@H]2O)cc1F [Xeloda, reference compound] | Tumor size [2]: 994.7 ± 405.5 mm^3; tumor growth inhibition ([2]; vs vehicle control): 46% |
